We go through two molecules from patent US9790211B2, “5-amino-quinoline-8-carboxamide derivatives as 5-HT4 receptor agonists” (SUVEN LIFE SCIENCES LIMITED, priority 2013, dated 2017).

The nature of series [1]: Rodent brain penetration study. The note with it: 3 mg/kg oral (gavage). Format: in vivo, Male Wistar rats. The method, then:
Male Wistar rats (225±25 grams) were used as experimental animals. Three animals were housed in each cage. Animals were given water and food ad libitum throughout the experiment and maintained on a 12 hours light/dark cycle. Brain penetration was determined in discrete manner in rats. One day prior to dosing day, male wistar rats (225-250 grams) were acclimatized. After acclimatization the rats were grouped according to their weight. In each group, 3 animals were kept in individual cage and allowed free access to food and water. At each time point (0.50, 1, and 2 hours) n=3 animals were used. The compounds of formula (I) were suitably preformulated and administered orally at (free base equivalent) 3 mg/kg. Blood samples were removed via, cardiac puncture by using isoflurane anesthesia. The animals were sacrificed to collect brain tissue. Plasma was separated and brain samples were homogenized and stored frozen at −20° C. until analysis. The concentrations of the compounds of formula (I) in plasma and brain were determined using LC-MS/MS method. The compounds of formula (I) were quantified in plasma and brain homogenate by qualified LC-MS/MS method using suitable extraction technique. The compounds of formula (I) were quantified in the calibration range of 1-500 ng/mL in plasma and brain homogenate. Study samples were analyzed using calibration samples in the batch and quality control samples spread across the batch. Extent of brain-plasma ratio was calculated (Cb/Cp).

A further series deals with Male Wistar rats. The experiment in a line: Object recognition task model. Format: in vivo. Particulars: dose mg/kg: Ex 1 0.1, Ex 2 0.03, Ex 4 0.03, Ex 13 1, Ex 23 0.01, Ex 37 10, Ex 43 0.3; for Exploration time mean ± S.E.M, Familiar object / Exploration time mean ± S.E.M, Novel object: choice trial T2, p.o.; for Inference: p.o.
Series [2] deals with T1, recombinant human 5-HT4 receptor (Homo sapiens, UniProt Q13639).
T1 construct: expressed in transfected cells
Nature of the series: Determination of EC50 values for 5-HT4 receptor (CHO cells, pCRE-Luc reporter). The class given is cell-based. Particulars: for EC50: 4 hours incubation; for Emax: CHO. In outline:
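CHO cells stably expressing human 5-HT4 receptor with a CRE-luciferase reporter, serum-starved overnight, then exposed to increasing compound concentrations in OptiMEM for 4 h at 37 °C. Cells lysed and luciferase luminescence plotted against concentration.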

Series [3] can be described thus: Rodent pharmacokinetic study. Particulars: plasma, Wistar/Male rat; for bioavailability: 3 mg/kg oral vs 1 mg/kg intravenous. The class given is in vivo, Male wistar rats. The method, then: Male wistar rats (225±25 grams) were used as experimental animals. Three to five animals were housed in each cage. Two days prior to dosing day, male wistar rats (225-250 grams) were anesthetized with isoflurane for surgical placement of jugular vein catheter. Animals were fasted over night before oral dosing (p.o) and food pellets were allowed 2 hours post dosing, whereas during intravenous dosing food and water were provided as ad libitum. Three rats were dosed with compounds of formula (I) (3 mg/kg) orally and intravenously (1 mg/kg).
At each time point blood was collected through jugular vein and immediately replenish with an equivalent volume of normal saline from freely moving rats. Collected blood was transferred into a labeled eppendr off containing 10 μL of heparin as anticoagulant. Typically blood samples were collected as following time points: Pre dose, 0.08 (only i.v.), 0.25, 0.5, 1, 2, 4, 6, 8, and 24 hours post dose (n=3). Blood was centrifuged at 4000 rpm for 10 minutes. Plasma was prepared and stored frozen at −20° C. until analysis. The concentrations of the compounds of formula (I) were quantified in plasma by qualified LC-MS/MS method using suitable extraction technique. The compounds of formula (I) were quantified in the calibration range around 2-2000 ng/mL in plasma. Study samples were analyzed using calibration samples in the batch and quality control samples spread across the batch.
Pharmacokinetic parameters Cmax, Tmax, AUC1, T1/2 and Bioavailability were calculated by non-compartmental model using standard non-coinpartmental model by using WinNonLin 5.0.1 or Phoenix WinNonlin 6.2 version Software package.

[4] abbreviates: CHO cells, human 5-HT4 receptor, luciferase reporter.

What is called EC50 is the concentration that produces a half-maximal response. What is called Emax is the greatest response seen or fitted, relative to the assay's reference. As usually defined, the Cmax is the maximum level reached in the sampled fluid or tissue. By Tmax is commonly meant the time from dosing to the highest level. A word on the half-life: it is the time in which the quantity being followed falls by half. A word on the AUC(0-t): it is the area under the concentration-time curve up to a stated or last time point. Low values mean less exposure, high ones more exposure. Usually bioavailability stands for dose-corrected exposure relative to a reference, in per cent.

Read-outs that look alike come from different tables or passages of the source.

T1 sequence (Q13639 whole entry): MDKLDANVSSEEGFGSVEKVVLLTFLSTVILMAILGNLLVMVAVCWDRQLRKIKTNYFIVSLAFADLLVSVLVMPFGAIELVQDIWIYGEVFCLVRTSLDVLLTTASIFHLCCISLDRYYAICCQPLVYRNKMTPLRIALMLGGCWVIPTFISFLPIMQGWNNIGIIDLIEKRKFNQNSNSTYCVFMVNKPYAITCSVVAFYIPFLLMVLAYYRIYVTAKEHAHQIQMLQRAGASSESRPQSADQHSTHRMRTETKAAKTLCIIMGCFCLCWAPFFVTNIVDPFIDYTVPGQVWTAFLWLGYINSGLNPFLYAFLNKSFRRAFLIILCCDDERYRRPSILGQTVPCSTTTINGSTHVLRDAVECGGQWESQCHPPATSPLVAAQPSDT

Take `Nc1c(Cl)cc(C(=O)NCC2CCN(CC3CCOCC3)CC2)c2ncccc12.O=C(O)/C=C/C(=O)O` [Example 1, 5-Amino-6-chloro-N-{[1-(tetrahydro-2H-pyran-4-ylmethyl)-4-piperidinyl]methyl}quinoline-8-carboxamide hemifumarate]: the “Single dose Brain Penetration (Cb/Cp)” value in series [1] (Wistar/Male rat) turned out to be 0.48 ± 0.03. Moreover, in the series on Male Wistar rats, the “Exploration time mean ± S.E.M, Familiar object” value is 5.94 ± 0.71 s; the “Exploration time mean ± S.E.M, Novel object” value is 16.09 ± 1.75 s; the Inference result is recorded as “Active”. The EC50 in series [2] (setting [4]) amounted to 0.04 nM. Also, in series [2] (CHO cells, human 5-HT4 receptor, luciferase reporter, read-out: Emax), the Emax was determined as 76%. In series [3] (1 mg/kg intravenous (bolus)), the Cmax came to 149 ± 6 ng/mL, the Tmax is 0.08 h and the half-life is 1.9 ± 0.7 h. Moreover, in series [3] (3 mg/kg oral (gavage)), the AUC(0-t) worked out at 240 ± 35 ng·h/mL, the Cmax stood at 121 ± 25 ng/mL, the Tmax was determined as 0.42 ± 0.14 h and the half-life is 4 ± 1.1 h. The bioavailability in series [3] was determined as 51 ± 5%.

As to `Nc1c(Cl)cc(C(=O)NCC2CCN(CC3CCOCC3)CC2)c2ncccc12.O=C(O)C(O)C(O)C(=O)O` [Example 13, 5-Amino-6-chloro-N-{[1-(tetrahydro-2H-pyran-4-ylmethyl)-4-piperidinyl]methyl} quinoline-8-carboxamide L(+)-tartarate], the Kp in series [1] (male, Wistar, rat, brain, po, 3 mg/kg, read-out: Single dose Brain Penetration (Cb/Cp)) was found to be 0.41 ± 0.04. For the same molecule, in the series with Male Wistar rats, the “Exploration time mean ± S.E.M, Familiar object” value amounted to 8.64 ± 1.33 s; the “Exploration time mean ± S.E.M, Novel object” value came to 15.11 ± 1.81 s; the Inference entry was “Active”. Besides, in series [2], the Emax amounted to 70%. For the same molecule, the EC50 in series [2] (setting [4]) amounted to 0.09 nM. Also, in series [3] (1 mg/kg intravenous (bolus)), the AUC(0-t) was 211 ± 20 ng·h/mL, the Cmax is 168 ± 12 ng/mL, the Tmax was 0.08 h and the half-life is 1.5 ± 0.3 h. Further, in series [3] (3 mg/kg oral (gavage)), the AUC(0-t) stood at 235 ± 25 ng·h/mL, the Cmax stood at 76 ± 3 ng/mL, the Tmax stood at 0.5 h and the half-life is 1.7 ± 0.3 h. The molecule further gave a bioavailability in series [3] of 37 ± 4%.
